{"source": "patent US20230173296A1", "about": "“INTRACAVITARY PHOTODYNAMIC THERAPY” (Simphotek, Inc., priority 2020, published 2023)", "origin": "cited, not measured here", "key": {"Human prostate": {"system": "Human prostate", "conditions": "Davidson et. al., 2009"}, "tumors in mice": {"system": "tumors in mice", "conditions": "Qiu et. al., 2016"}, "cancer in rabbits": {"system": "cancer in rabbits", "conditions": "I-PDT, Shafirstein et. al., 2018"}, "cancer in mice": {"system": "cancer in mice", "conditions": "I-PDT, Shafirstein et. al., 2018"}}, "note": "Where two headings read alike, the source gives them in different places."}
{"molecule": "CC[C@H]1c2cc3[n-]c4c(c3C)C(=O)[C@H](C(=O)OC)c4c3nc(cc4[n-]c(cc(n2)[C@@H]1C)c(C(C)=O)c4C)[C@@H](C)[C@@H]3CCC(=O)O.[Pd+2]", "note": "[TOOKAD]", "values": [{"measurement": "Threshold Light Dose", "setting": "Human prostate", "value": ">23 (Davidson et. al., 2009) J/cm^2"}]}
{"molecule": "Oc1cccc(-c2c3nc(c(-c4cccc(O)c4)c4ccc([nH]4)c(-c4cccc(O)c4)c4nc(c(-c5cccc(O)c5)c5ccc2[nH]5)CC4)C=C3)c1", "note": "[mTHPC]", "values": [{"measurement": "ε, PS extinction coefficient", "setting": "650 nm", "value": "mTHPC (650 nm): 0.048 cm^−1 μM^−1"}]}
{"molecule": "Photofrin", "values": [{"measurement": "Threshold [^1O2]dose", "setting": "tumors in mice", "value": ">1.0 (Qiu et. al., 2016) mM"}, {"measurement": "Threshold Light Dose Rate ϕT", "setting": "cancer in rabbits", "value": "16.5 (Shafirstein et. al., 2018) mW/cm^2"}, {"measurement": "Threshold Light Dose Rate ϕT", "setting": "cancer in mice", "value": "8.4 (Shafirstein et. al., 2018) mW/cm^2"}, {"measurement": "ε, PS extinction coefficient", "setting": "630 nm", "value": "Photofrin (630 nm): 0.0035 cm^−1 μM^−1"}]}
{"molecule": "benzoporphyrin derivative monoacid ring A [BPD]", "values": [{"measurement": "ε, PS extinction coefficient", "setting": "690 nm", "value": "BPD (690 nm): 0.0783 cm^−1 μM^−1"}]}
